Consider 21 compounds from patent US20060074105A1, “Substituted quinoline and quinazoline inhibitors of quinone reductase 2” (Serenex, Inc., priority 2004, published 2006).

One series has as its target T1, recombinant QR2 (Homo sapiens, UniProt P16083).
T1 sequence (P16083 1-231): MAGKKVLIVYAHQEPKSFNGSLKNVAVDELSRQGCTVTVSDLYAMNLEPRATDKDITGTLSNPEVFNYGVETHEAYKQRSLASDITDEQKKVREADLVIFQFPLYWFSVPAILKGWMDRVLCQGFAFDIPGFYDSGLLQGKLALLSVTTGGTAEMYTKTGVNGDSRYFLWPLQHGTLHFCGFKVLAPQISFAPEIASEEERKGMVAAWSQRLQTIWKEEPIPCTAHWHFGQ
Put plainly: Inhibition of QR2 activity in vitro (absorbance at 365 nm, NmeH/menadione). The class given is biochemical. The protocol:
Inhibition of QR2 activity by the compounds of the invention was assayed in triplicate with recombinant QR2 (at 96 ng/ml) by measuring the absorbance at 365 nm in a buffer containing 50 Mm Tris-HCl, Ph 8.5, 50 μM NmeH, 20 μM menadione, and 0.1% Triton X-100 as described in Graves et al. (2002) Mol. Pharmacol. 62: 1364-72.

Series [1] has as its system Plasmodium chabaudi AS line. Nature of the series: Four day test for blood schizontocidal activity, P. chabaudi AS in mice. The class given is in vivo. Also noted: ED90: unit not given beside the values. Conditions: for ED50: Plasmodium chabaudi. The protocol: (§1) MEFA which was developed from NS by the 2% relapse technique (Peters, W., Chemotherapy and Drug Resistance in Malaria, 2nd Ed., London, Academic Press, ISBN 0-12-552721-7).
(§2) Blood schizontocidal activity was assessed by the “four day test” essentially as described by Peters, W. and Robinson, B. L. (1999), “Malaria” in Handbook of Animal Models of Infection, Academic Press. The compound was dissolved in dimethyl sulfoxide with the aid of ultrasonification and aqueous dilutions were prepared for use.
(§3) Random-bred Swiss albino mice free of Mycoplasma (Eperythrozoon) coccoides and weighing between 18 and 22 g. were infected via the tail vein on day 0 (D0) and then treated once daily either subcutaneously or orally by gavage for four consecutive days (D0 through D+3). Thin blood films were made from tail blood from groups of untreated controls and from treated animals on D+4.

The subject of a further series is P. yoelii ssp. NS. Put plainly: Four day test for blood schizontocidal activity, chloroquine-resistant P. yoelii ssp. NS in mice. Conditions: for ED50: Plasmodium yoelii. Also noted: ED90: unit not given beside the values. The class given is in vivo, Plasmodium yoelii. The procedure:
as §1, §2, §3

The next series concerns P. yoelii ssp. MEFA. Nature of the series: Four day test for blood schizontocidal activity, mefloquine-resistant P. yoelii ssp. MEFA in mice. The class given is in vivo, Plasmodium yoelii. Also noted: ED90: unit not given beside the values. Conditions: for ED50: Plasmodium yoelii. The procedure: as §1, §2, §3
Series [2] in a line: Signs of toxicity in mice treated in the four day test. The format is in vivo.
Excerpt: as §3

The mark [3] stands for this setting: average of the determinations, read-out: IC50 Average.
The mark [4] stands for this setting: individual determinations, assay range given, read-out: IC50.
The mark [5] stands for this setting: set 1, average, read-out: IC50 Average.
Where [6] appears, read: set 2, average, read-out: IC50 Average.
[7] abbreviates: set 2, individual determinations, read-out: IC50.
The mark [8] stands for this setting: P. yoelii ssp. MEFA, sc, once daily D0 to D+3, mice.

Values joined by “and” are separate entries in the source; they are usually repeats but may differ in a detail not shown here. Identical values can stand only once. Like-named read-outs stand apart in the source and are kept apart here.

Consider `Clc1ccc2c(NCCc3ccccn3)ccnc2c1` [Compound 2-4], for which the IC50 at recombinant QR2 (setting [3]) is 3.8 µM; at recombinant QR2 (setting [4]), 3.3 µM and 4.7 µM.

Consider `Oc1ccc(CCNc2ccnc3cc(Cl)ccc23)cc1` [Compound 2-5], for which the IC50 at recombinant QR2 (setting [3]) was 2.7 µM; at recombinant QR2 (setting [4]) it was 2.68 µM and 2.42 µM and 2.86 µM.

As for `Clc1ccc2c(NCc3ccccn3)ccnc2c1` [Compound 2-17], the IC50 on recombinant QR2 (setting [5]) is 0.6 µM; on recombinant QR2 (set 1, individual determinations, read-out: IC50) it was 0.41 µM and 0.67 µM and 0.72 µM; on recombinant QR2 (setting [6]), 0.55 µM; at recombinant QR2 (setting [7]) it was 0.6 µM and 0.5 µM.

Take `Clc1ccc2c(NC3=NC4C=CC=CC4N3)ccnc2c1` (stereo not drawn) [Compound 2-29]: the IC50 on recombinant QR2 (setting [3]) was 3.2 µM; at recombinant QR2 (setting [4]), 4.1 µM and 2.2 µM and 3.4 µM.

For `Clc1ccc2c(SCc3ccccn3)ccnc2c1` [Compound 2-33], the half-maximal inhibitory concentration (IC50) on recombinant QR2 (setting [3]) was 74 µM; on recombinant QR2 (setting [4]), 84 µM and 72.2 µM and 65.9 µM.

For the compound `Clc1ccc2c(OCc3ccccn3)ccnc2c1` [Compound 2-34], the IC50 at recombinant QR2 (setting [3]) was 79.6 µM; on recombinant QR2 (setting [4]), 81.5 µM and 79 µM and 78.3 µM.

In the case of `CNc1ccnc2cc(Cl)ccc12` [Compound 2-39], the ED50 in series [1] (po) is 150 mg/kg; in series [1] (sc) it was 150 mg/kg; with P. yoelii ssp. NS (po), 220 mg/kg; in the series on P. yoelii ssp. NS (sc), 400 mg/kg; with P. yoelii ssp. MEFA (P. yoelii ssp. MEFA, po, once daily D0 to D+3, mice), 190 mg/kg; with P. yoelii ssp. MEFA (setting [8]), 320 mg/kg. For the same compound, the “activity against the drug-sensitive P. chabaudi AS line” value in series [1] (parenteral and oral, result in words) is “active both parenterally and orally”. Besides, the “inhibitory activity against resistant strain of P. yoelii” value in the series with P. yoelii ssp. NS (chloroquine-resistant P. yoelii ssp. NS, result in words) is recorded as “demonstrated inhibitory activity”; in the series on P. yoelii ssp. MEFA (mefloquine-resistant P. yoelii ssp. MEFA, result in words) it was “demonstrated inhibitory activity”. Also, the toxicity entry in series [2] (oral, higher doses) is reported as “some toxicity was observed at higher doses”. The “overt signs of toxicity” value in series [2] (subcutaneous) was “No overt signs of toxicity”. Moreover, the IC50 on recombinant QR2 (setting [3]) was 0.13 µM; on recombinant QR2 (setting [4]), 0.13 µM and 0.16 µM and 0.09 µM.

Consider `CC(O)CNCCNc1cc(C(F)(F)F)nc2c(C(F)(F)F)cccc12` (stereo not drawn) [Compound 3-3], for which the IC50 at recombinant QR2 (setting [3]) was 98 µM; on recombinant QR2 (setting [4]), 109 µM and 87 µM.

Take `OCCN(CCO)CCCNc1cc(C(F)(F)F)nc2c(C(F)(F)F)cccc12` [Compound 3-4]: the IC50 is 238 µM on recombinant QR2 (setting [3]); 229 µM and 164 µM and 320 µM on recombinant QR2 (setting [4]).

For the compound `COc1cc(NCc2ccccn2)c2ncccc2c1` [Compound 4-1], the IC50 on recombinant QR2 (setting [3]) was 0.47 µM; on recombinant QR2 (setting [4]) it was 0.34 µM and 0.24 µM and 0.84 µM.

As to `COc1cc(NC2CCN(Cc3ccccc3)CC2)c2ncccc2c1` [Compound 4-2], the 50% inhibitory concentration (IC50) is 4.8 µM at recombinant QR2 (setting [3]); 4.5 µM and 4.7 µM and 5.3 µM at recombinant QR2 (setting [4]).

With `CCC(CC)(CCC#N)CNc1cc(OC)cc2cccnc12` [Compound 4-3], the IC50 at recombinant QR2 (setting [3]) was 10.2 µM; on recombinant QR2 (setting [4]) it was 9.1 µM and 7.8 µM and 13.7 µM.

For the compound `CCN(CC)CCC(C)Nc1cc(OC)cc2cccnc12` (stereo not drawn) [Compound 4-5], the IC50 was 23 µM at recombinant QR2 (setting [3]); 18.5 µM and 21.7 µM and 28.8 µM at recombinant QR2 (setting [4]).

As for `CCN1CCC(Nc2cc(OC)cc3cccnc23)CC1` [Compound 4-8], the IC50 at recombinant QR2 (setting [3]) is 1.6 µM; at recombinant QR2 (setting [4]), 2.2 µM and 0.89 µM and 1.65 µM.

On to `CCC(CC)(CCCN)CNc1cc(OC)cc2cccnc12` [Compound 4-9], for which the IC50 is 18.5 µM at recombinant QR2 (setting [3]); 11.6 µM and 27.5 µM and 16.4 µM at recombinant QR2 (setting [4]).

Consider `O=[N+]([O-])c1ccc(NCCNc2cc(C(F)(F)F)nc3cc(C(F)(F)F)ccc23)nc1` [Compound 5, N-(2-(5-nitropyridin-2-ylamino)ethyl)-2,7-bis(trifluoromethyl)quinolin-4-amine], for which the IC50 on recombinant QR2 (setting [3]) is 189 µM; on recombinant QR2 (setting [4]), 132 µM and 180 µM and 255 µM.

On to `Clc1ccc2cc(-c3ccccc3)cnc2c1` [Compound 7, 7-chloro-3-phenylquinoline], for which the IC50 is 43.3 µM on recombinant QR2 (setting [3]); 49.5 µM and 40 µM and 40.3 µM at recombinant QR2 (setting [4]).

As for `COc1ccc2c(ccc[n+]2[O-])c1` [Compound 9, 6-methoxyquinoline N-oxide], the IC50 at recombinant QR2 (setting [3]) is 4.9 µM; on recombinant QR2 (setting [4]) it was 4.2 µM and 4.7 µM and 5.8 µM.

For the compound `CCN(CC)CCCC(C)Nc1ccnc2cc(Cl)ccc12` (stereo not drawn) [chloroquine, reference compound], in the series with P. yoelii ssp. NS (P. yoelii ssp. NS, sc, once daily D0 to D+3, mice), the ED90 is on record as 19.0. It took a dose of 5 mg/kg to reach the 50% effect level in the series on P. yoelii ssp. NS (sc) (ED50). Moreover, the IC50 is 1 to 5 µM on recombinant QR2 (read-out: QR2 IC50); 1.13 µM at recombinant QR2 (setting [5]); 4.13 µM at recombinant QR2 (setting [6]); 3.99 µM and 4.15 µM and 4.25 µM on recombinant QR2 (setting [7]).

In the case of `OC(c1cc(C(F)(F)F)nc2c(C(F)(F)F)cccc12)C1CCCCN1` (stereo not drawn) [mefloquine, reference compound], the ED90 in series [1] (P. chabaudi AS, sc (subcutaneous injection), once daily D0 to D+3, mice) came out at 3.0; in the series on P. yoelii ssp. MEFA (setting [8]) it was 100. Also, the ED50 in series [1] (P. chabaudi AS, sc (subcutaneous injection), once daily D0 to D+3, mice, read-out: ED50) is 1.5 mg/kg; in the series on P. yoelii ssp. MEFA (setting [8]) it was 20 mg/kg. For the same compound, the IC50 at recombinant QR2 (setting [3]) is 33 µM; on recombinant QR2 (setting [4]) it was 28 µM and 34.8 µM and 36.5 µM.

Regarding `COc1cc(NC(C)CCCN)c2ncccc2c1` (stereo not drawn) [primaquine, reference compound], the IC50 was 14.2 µM and 11 µM and 13.2 µM at recombinant QR2 (IC50 (μM), individual determinations, assay range given); 13 µM on recombinant QR2 (IC50 Average, average of the determinations).
